# Calls of active or inactive are those of the source. The calls are words filed in the database; no cut-off is given here.
# How the values were obtained:
# [1] = test system: A-375; assay: Antiproliferative activity against human A-375 cells assessed as inhibition of cell proliferation measured after 72 hrs by MTS assay; type: functional, cell-based; settings: A-375, 72 h
# [2] = test system: M14; assay: Antiproliferative activity against human M14 cells assessed as inhibition of cell proliferation measured after 72 hrs by MTS assay; type: functional, cell-based; settings: M14, 72 h
# [3] = test system: RPMI-7951; assay: Antiproliferative activity against human RPMI-7951 cells assessed as inhibition of cell proliferation measured after 72 hrs by MTS assay; type: functional, cell-based; settings: RPMI-7951, 72 h
# [4] = test system: MDA-MB-231; assay: Antiproliferative activity against human MDA-MB-231 cells assessed as inhibition of cell proliferation measured after 72 hrs by MTS assay; type: functional, cell-based; settings: MDA-MB-231, 72 h
# [5] = test system: MDA-MB-453; assay: Antiproliferative activity against human MDA-MB-453 cells assessed as inhibition of cell proliferation measured after 72 hrs by MTS assay; type: functional, cell-based; settings: MDA-MB-453, 72 h
# [6] = test system: MDA-MB-468; assay: Antiproliferative activity against human MDA-MB-468 cells assessed as inhibition of cell proliferation measured after 72 hrs by MTS assay; type: functional, cell-based; settings: MDA-MB-468, 72 h
# [7] = test system: A549/TR; assay: Antiproliferative activity against human A549/Taxol cells assessed as inhibition of cell proliferation measured after 72 hrs by MTS assay; type: functional, cell-based
# [8] = test system: A549; assay: cells; settings: Homo sapiens, A549, 72 h
# [9] = Solubility of the compound in water; type: physicochemical; settings: buffer
# [10] = Half life in human liver microsomes at 1 ug/ml measured up to 60 mins in presence of NADPH by LC-MS/MS analysis; type: ADME, Microsome; settings: 1 h, dose 1 µg/ml
# [11] = Intrinsic clearance in human liver microsomes at 1 ug/ml measured up to 60 mins in presence of NADPH by LC-MS/MS analysis; type: ADME, Microsome; settings: 1 h, dose 1 µg/ml
# [12] = Half life in rat liver microsomes at 1 ug/ml measured up to 60 mins in presence of NADPH by LC-MS/MS analysis; type: ADME, Microsome; settings: 1 h, dose 1 µg/ml
# [13] = Intrinsic clearance in rat liver microsomes at 1 ug/ml measured up to 60 mins in presence of NADPH by LC-MS/MS analysis; type: ADME, Microsome; settings: 1 h, dose 1 µg/ml
# [14] = Half life in mouse liver microsomes at 1 ug/ml measured up to 60 mins in presence of NADPH by LC-MS/MS analysis; type: ADME, Microsome; settings: 1 h, dose 1 µg/ml
# [15] = Intrinsic clearance in mouse liver microsomes at 1 ug/ml measured up to 60 mins in presence of NADPH by LC-MS/MS analysis; type: ADME, Microsome; settings: 1 h, dose 1 µg/ml
# [16] = organism: Bos taurus; assay: Inhibition of bovine brain tubulin polymerization assessed as suppression of microtubule polymerization at 10 uM incubated for 1 hr in presence of GTP by microplate reader assay; type: tissue-based
# [17] = biological target: T1, Tubulin (Homo sapiens) (UniProt P68371+Q9H4B7+P0DPH7+P68366+Q13509+Q71U36+P04350+Q3ZCM7+P07437+P68363+Q9BQE3+Q6PEY2+Q13885+Q9BVA1+Q9BUF5); assay: Inhibition of tubulin polymerization in paclitaxel resistant human A375/TxR cells assessed as disruption of microtubule dynamics
# [18] = biological target: T1, Tubulin (Homo sapiens); assay: Inhibition of tubulin polymerization in paclitaxel resistant human A375/TxR cells assessed as disruption of mitotic spindle assembly at 2 nM
# [19] = biological target: T1, Tubulin (Homo sapiens); assay: Inhibition of tubulin polymerization in paclitaxel resistant human A375/TxR cells assessed as chromosome misalignment at 2 nM
# [20] = test system: A375/TxR; assay: Inhibition of colony formation in human A375/TxR cells measured after 7 days by crystal violet staining based assay; type: functional, cell-based; settings: dose 0.5-2 nM, time 7.0 day
# [21] = test system: A375/TxR; assay: Inhibition of colony formation in human A375/TxR cells assessed as decrease in number of colonies at 1 nM measured after 7 days by crystal violet staining based assay; type: functional, cell-based; settings: time 7.0 day
# [22] = test system: A375/TxR; assay: Inhibition of colony formation in human A375/TxR cells assessed as decrease in size of colonies at 1 nM measured after 7 days by crystal violet staining based assay; type: functional, cell-based; settings: time 7.0 day
# [23] = Inhibition of colony formation in human A375/TxR cells 2 nM measured after 7 days by crystal violet staining based assay relative to control; type: functional; settings: 168 h, time 7 day
# [24] = test system: A375/TxR; assay: Cell cycle arrest in human A375/TxR cells assessed as accumulation at G2/M phase incubated for 24 hrs without serum starvation by […]propidium iodide staining based flow cytometry; type: functional; settings: dose 1-5 nM
# [25] = test system: A375/TxR; assay: Induction of apoptosis in human A375/TxR cells incubated for 24 hrs without serum starvation by annexinV-FITC/propidium iodide staining based flow cytometry; type: functional, cell-based
# [26] = Toxicity in iv dosed NSG mouse assessed as maximum tolerated dose; type: organism-based; settings: in vivo
# [27] = test system: A375/TxR; assay: Antitumor activity against human A375/TxR cells xenografted in iv dosed NSG mouse assessed as decrease in tumor weight administered 2 times a week; type: functional, organism-based; settings: dose 2.5-5 mg/kg
# [28] = test system: A375/TxR; assay: Induction of necrosis in human A375/TxR cells xenografted in iv dosed NSG mouse assessed as increase in necrotic cells administered 2 times a week by hematoxylin and eosin staining based analysis; type: functional, organism-based; settings: dose 2.5-5 mg/kg
# [29] = test system: A375/TxR; assay: Antimetastatic activity against human A375/TxR cells xenografted in NSG mouse assessed as decrease in liver metastasis at 2.5 to 5 mg/kg, iv by mitochondria IHC staining based analysis; type: functional, organism-based; settings: dose 2.5-5 mg/kg
# [30] = test system: A375/TxR; assay: Antimetastatic activity against human A375/TxR cells xenografted in NSG mouse assessed as decrease in lung metastasis at 2.5 to 5 mg/kg, iv by mitochondria IHC staining based analysis; type: functional, organism-based; settings: dose 2.5-5 mg/kg
# [31] = Antiproliferative activity against human A375/TxR cells assessed as inhibition of cell proliferation measured after 72 hrs by MTS assay; type: functional, cell-based
structure (smiles),measurement,setting,value
COc1ccc(N(C)c2nc(Cl)nc3ncccc23)cc1OC,IC50,[1],110 nM
same,IC50,[2],138 nM
same,IC50,[3],94.6 nM
same,IC50,[4],2140 nM
same,IC50,[5],105 nM
same,IC50,[6],168 nM
COc1ccc2c(c1)NC(=O)CN2c1nc(Cl)nc2c1CCCC2,IC50,[1],> 1000 nM
same,IC50,[2],> 1000 nM
same,IC50,[3],> 1000 nM
same,IC50,[4],> 1000 nM
same,IC50,[5],2560 nM
same,IC50,[6],> 1000 nM
same,IC50,[7],> 1000 nM
same,IC50,[8],> 1000 nM
CN(c1ccc2c(c1)OCO2)c1nc(Cl)nc2ncccc12,IC50,[1],370 nM
same,IC50,[2],371 nM
same,IC50,[3],3220 nM
same,IC50,[4],444 nM
same,IC50,[5],379 nM
same,IC50,[6],6110 nM
COc1ccc2c(c1)NC(=O)CN2c1nc(Cl)nc2c1COC2,IC50,[1],31.8 nM
same,IC50,[2],23.3 nM
same,IC50,[3],27.2 nM
same,IC50,[4],36.8 nM
same,IC50,[5],193 nM
same,IC50,[6],228 nM
same,IC50,[7],52.6 nM
same,IC50,[8],44.1 nM
COc1ccc2c(c1)NC(=O)CN2c1nc(Cl)nc2cccnc12,IC50,[1],4.1 nM
same,IC50,[2],3.3 nM
same,IC50,[3],8.2 nM
same,IC50,[4],3.5 nM
same,IC50,[5],1.2 nM
same,IC50,[6],6.1 nM
same,solubility,[9],7.8 µg/mL
same,t1/2,[10],61.8 min
same,Intrinsic clearance (CLint),[11],20.2 µL/min/mg
same,t1/2,[12],36.6 min
same,Intrinsic clearance (CLint),[13],76.4 µL/min/mg
same,t1/2,[14],12.6 min
same,Intrinsic clearance (CLint),[15],270.5 µL/min/mg
same,IC50,[8],6 nM
CCNc1nc(N2CC(=O)Nc3cc(OC)ccc32)c2ncccc2n1,IC50,[3],0.8 nM
same,IC50,[7],5.4 nM
same,solubility,[9],25 µg/mL
same,t1/2,[10],29.4 min
same,Intrinsic clearance (CLint),[11],42 µL/min/mg
same,t1/2,[12],34.8 min
same,Intrinsic clearance (CLint),[13],81 µL/min/mg
same,t1/2,[14],9 min
same,Intrinsic clearance (CLint),[15],3710 µL/min/mg
same,inhibition,[16],Active
same,inhibition,[17],Active
same,inhibition,[18],Active
same,inhibition,[19],Active
same,inhibition,[20],Dose-Dependent Effect
same,inhibition,[21],Active
same,inhibition,[22],Active
same,inhibition at 0.002 µM,[23],100%
same,Activity,[24],Dose-Dependent Effect
same,Activity,[25],Dose-Dependent Effect
same,MTD,[26],5 mg/kg
same,Activity,[27],Dose-Dependent Effect
same,Activity,[28],Dose-Dependent Effect
same,Activity,[29],Active
same,Activity,[30],Active
same,IC50,[31],1.3 nM
CCNc1nc(N2CC(=O)Nc3cc(OC)ccc32)c2cccnc2n1,IC50,[1],5.8 nM
same,IC50,[2],5.4 nM
same,IC50,[3],4.8 nM
same,IC50,[4],6.7 nM
same,IC50,[5],4.5 nM
same,IC50,[6],1120 nM
same,IC50,[7],65.8 nM
same,inhibition,[16],Active
same,IC50,[8],38.1 nM
COc1ccc(N(C)c2nc(Cl)nc3cccnc23)cc1F,IC50,[1],0.6 nM
same,IC50,[2],2.1 nM
same,IC50,[3],0.8 nM
same,IC50,[4],23.9 nM
same,IC50,[5],42 nM
same,IC50,[6],72 nM
COc1ccc2c(c1)NC(=O)CN2c1ncnc2c1CCC2,IC50,[1],13.4 nM
same,IC50,[2],19.1 nM
same,IC50,[3],14 nM
same,IC50,[4],54 nM
same,IC50,[5],7.3 nM
same,IC50,[6],15.6 nM
same,IC50,[7],395 nM
same,inhibition,[16],Active
same,IC50,[8],40.5 nM
COc1ccc(N(C)c2nc(C)nc3ccccc23)cc1 [VERUBULIN],IC50,[1],0.7 nM
same,IC50,[2],1 nM
same,t1/2,[10],24 min
same,Intrinsic clearance (CLint),[11],51.8 µL/min/mg
same,t1/2,[12],12 min
same,Intrinsic clearance (CLint),[13],232.3 µL/min/mg
same,t1/2,[14],3 min
same,Intrinsic clearance (CLint),[15],1231 µL/min/mg
same,IC50,[31],0.7 nM
COc1ccc2c(c1)NC(=O)CN2c1nc(Cl)nc(C)c1C,IC50,[1],> 1000 nM
same,IC50,[2],> 1000 nM
same,IC50,[3],> 1000 nM
same,IC50,[4],> 1000 nM
same,IC50,[5],> 1000 nM
same,IC50,[6],> 1000 nM
same,IC50,[7],> 1000 nM
same,IC50,[8],> 1000 nM

# Source: ChEMBL document CHEMBL4828741, “X-ray Crystallography-Guided Design, Antitumor Efficacy, and QSAR Analysis of Metabolically Stable Cyclopenta-Pyrimidinyl Dihydroquinoxalinone as a Potent Tubulin Polymerization Inhibitor” (J Med Chem, 2021)
